Experimental data taken from US7186819B2, “Glutamate receptor and utilization thereof” (Ajinomoto Co., Inc., priority 2002, dated 2007).

Legend:
vagal gastric branch = assay: Vagal gastric branch afferent nerve activity recording after administration to stomach; assay type: in vivo, rat; settings: 150 mM administered to stomach; urethane-anesthetized fasted Wistar rats; FIG. 4
Procedure: Rats (Wistar strain, males, 8 to 10 weeks age; Nippon Charles Liver) were fasted for 18 hours, laparotomy was conducted under anesthetization with urethane (1 g/kg; i.p.) and vagal gastric branch was exfoliated to an extent of about 5 mm. After vagal bundle was cut, it was placed on a small operation stand (8×6 mm), fat and bonded tissues around that were carefully detached and the terminal fiber at the side of organ was placed on a dipole electrode made of platinum for recording and insulated from the surrounding tissues by a mixture of liquid paraffin-vaseline (1:1). […]
Nerve action potential was amplified to an extent of 10,000-fold by a micropotential amplifier (DAM-80 manufactured by WPI); and after noise was reduced by a Vessel filter (4-pole, High Cut 10 Hz, Low Cut 1 KHz), it was subjected to an A/D conversion (Powerlab 4sp, manufactured by ADI Instruments, Inc.) and incorporated into a computer (sampling rate 3 KHz, iBook). At the same time, an amplified signal was separated by a window discriminator (DSE-435 manufactured by Daiya Medical Co., Ltd.) into a noise component and a nerve signal component together with monitoring by an oscilloscope, integrated for 5 seconds by a spike counter (DSE-335P manufactured by Daiya Medical Co., Ltd.) and recorded in a chart recorder (WT-465G manufactured by Nippon Koden Corporation). […]

mGluRTβa = biological target: T1, mGluRTβa (Rattus norvegicus, UniProt P23385); assay: Two-electrode membrane potential fixation measurement of calcium-dependent chloride current in Xenopus oocytes expressing mGluRTβa; assay type: cell-based; settings: medium containing 50 mM, potential fixed at -70 mV, current disappeared on substituting the medium again, FIG. 6
T1 construct: expressed in transfected cells; host or cells: Xenopus oocytes injected with cRNA transcribed from pCRII-TOPO/mGluRTβ
Procedure: (§1) Oocyte-expressing strain of Xenopus was used for analysis of function of mGluR1 mRNA derived from circumvallate papilla of rats.
(§2) Female Xenopus (purchased from Watanabe Zoshoku) was bred in a fish tank until oocytes were isolated. The Xenopus was anesthetized with tricain methanesulfonate (MS 222, Sigma) dissolved in deionized water in a concentration of 1 g/L followed by buffering with NaHCO3 (500 mg/L). Anatomy was conducted by hand and oocytes in stages V and VI were recovered from ovary and incubated (for 30 minutes to 1 hour) in a 0.2% collagenase S-1 (Nitta Gelatin) until dissociation took place. After treating with collagenase, the oocytes were washed; follicles were removed; selection was conducted under a microscope; and incubation was carried out at 18° C. for one night.
(§3) Since the polymerase remains […] in PCR fragments, PCR-amplified mGluRTβa and mGluRTγa template DNA were inserted into pCRII-TOPO vector (Invitrogen) by a TOPO-TA cloning reaction. pCRII-TOPO/mGluRTγ vector and pCRII-TOPO/mGluRTβ vector were made into straight lines using EcoRV and XbaI, respectively, extracted with a mixture of phenol and chloroform and precipitated with ethanol together with sodium acetate. After a sequence analysis, cRNA was prepared using a transcription kit for Sp6 promoter made by Ambion (mMESSAGE mMACHINE kit) binding to pCRII-TOPO promoter.

mGluRTγa = biological target: T2, mGluRTγa (Rattus norvegicus, UniProt P23385); assay: Two-electrode membrane potential fixation measurement of calcium-dependent chloride current in Xenopus oocytes expressing mGluRTγa; assay type: cell-based; settings: potential fixed at -70 mV
T2 construct: expressed in transfected cells; host or cells: Xenopus oocytes injected with cRNA transcribed from pCRII-TOPO/mGluRTγ
Procedure: as §1, §2, §3

[1] = test system: oocytes into which cRNA was not injected; assay: Two-electrode membrane potential fixation measurement of membrane current in oocytes not injected with cRNA; assay type: cell-based, Xenopus; settings: data not shown
Procedure: as §2

T1 sequence (P23385 410-1199): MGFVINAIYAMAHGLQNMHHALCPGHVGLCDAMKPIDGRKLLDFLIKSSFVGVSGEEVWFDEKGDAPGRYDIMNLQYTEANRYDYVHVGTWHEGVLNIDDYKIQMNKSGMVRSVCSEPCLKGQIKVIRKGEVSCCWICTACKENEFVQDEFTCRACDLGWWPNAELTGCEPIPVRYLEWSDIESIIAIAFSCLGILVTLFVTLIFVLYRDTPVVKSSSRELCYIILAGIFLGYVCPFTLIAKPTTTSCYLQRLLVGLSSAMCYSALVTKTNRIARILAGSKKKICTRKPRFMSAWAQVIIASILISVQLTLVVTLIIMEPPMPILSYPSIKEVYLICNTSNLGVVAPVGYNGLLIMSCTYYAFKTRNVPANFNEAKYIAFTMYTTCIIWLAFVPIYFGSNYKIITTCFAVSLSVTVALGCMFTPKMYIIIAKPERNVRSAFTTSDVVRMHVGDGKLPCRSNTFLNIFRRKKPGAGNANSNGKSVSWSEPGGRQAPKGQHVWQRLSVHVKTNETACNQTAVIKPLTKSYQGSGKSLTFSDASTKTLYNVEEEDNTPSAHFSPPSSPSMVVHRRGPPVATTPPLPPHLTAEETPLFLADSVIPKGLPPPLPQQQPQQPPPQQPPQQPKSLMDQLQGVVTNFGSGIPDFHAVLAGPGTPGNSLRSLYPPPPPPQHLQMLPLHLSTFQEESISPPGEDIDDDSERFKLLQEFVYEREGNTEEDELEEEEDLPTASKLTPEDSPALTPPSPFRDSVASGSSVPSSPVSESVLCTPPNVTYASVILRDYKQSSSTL
T2 sequence (P23385 410-1199): as above

Membrane current (calcium-dependent chloride current) (mGluRTβa): continuous introvert current was induced | Membrane current (calcium-dependent chloride current) (mGluRTγa): same introvert current was also observed
Compound: N[C@@H](CCC(=O)[O-])C(=O)[O-].[Na+].[Na+] [MSG, sodium L-glutamate]
Centripetal activity of vagal gastric branch (vagal gastric branch): accelerated | Membrane current (calcium-dependent chloride current) [1]: not observed
